For 27 compounds, IC50 results are on record in patent publication US20160060260A1, “BROMODOMAIN INHIBITORS FOR TREATING DISEASE” (Board of Regents, The University of Texas System, priority 2014, published 2016).

In this assay the target is T1, Recombinant human His-tagged Trim24-PHD-bromodomain (Homo sapiens, UniProt O15164).
T1 construct: Recombinant human His-tagged Trim24-PHD-bromodomain (produced in-house); made in house
T1 sequence (O15164 824-1006 limits assumed): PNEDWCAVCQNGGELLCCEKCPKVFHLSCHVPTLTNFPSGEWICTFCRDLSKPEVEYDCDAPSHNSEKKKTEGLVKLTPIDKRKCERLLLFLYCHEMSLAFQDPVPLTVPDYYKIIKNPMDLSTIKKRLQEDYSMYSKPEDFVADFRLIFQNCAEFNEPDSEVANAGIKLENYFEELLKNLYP
Nature of the assay: Trim24 AlphaScreen Assay. The format is binding. To be noted: 5 nM Trim24 protein, 15 nM biotinylated H3K23ac (1-33aa) peptide. The procedure, abridged:
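AlphaScreen read-out after 2 h with streptavidin donor and Ni-chelate acceptor beads at 10 ug/mL each, following 1 h room-temperature incubation of compound, His-tagged PHD-bromodomain protein and biotin-H3K23ac (1-33aa) peptide in Hepes pH 7.5 buffer with NaCl and Triton X-100. Signals normalised between no-compound and no-protein wells; IC50 from four-parameter logistic curves.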
In general terms: Bead proximity is the source of the signal in Alpha formats.
Broadly, the IC50 is the concentration that gives 50% inhibition. Take `COc1ccc(S(=O)(=O)Nc2cc3c(cc2Oc2cc(OCCCCN(C)C)cc(OCC(F)(F)F)c2)n(C)c(=O)n3C)cc1OC` [Example 211, N-(6-(3-(4-(dimethylamino)butoxy)-5-(2,2,2-trifluoroethoxy)phenoxy)-1,3-dimethyl-2-oxo-2,3-dihydro-1H-benzo[d]imidazol-5-yl)-3,4-dimethoxybenzenesulfonamide]: the half-maximal inhibitory concentration (IC50) fell in the range of 1 to 10 nM.
For `Cc1c(S(=O)(=O)Nc2cc3c(cc2Oc2cc(OCCCCN(C)C)cc(OCC(F)(F)F)c2)n(C)c(=O)n3C)cnn1C` [Example 212, N-(6-(3-(4-(dimethylamino)butoxy)-5-(2,2,2-trifluoroethoxy)phenoxy)-1,3-dimethyl-2-oxo-2,3-dihydro-1H-benzo[d]imidazol-5-yl)-1,5-dimethyl-1H-pyrazole-4-sulfonamide], the IC50 was in the range of 1 to 10 nM.
As to `CCCOc1cc(OCCCCN)cc(Oc2cc3c(cc2NS(=O)(=O)c2cn(C)c(C)n2)n(C)c(=O)n3C)c1` [Example 214], the half-maximal inhibitory concentration (IC50) was in the range of 10 to 100 nM.
With `Cc1c(S(=O)(=O)Nc2cc3c(cc2Oc2cc(OCCCCCCN(C)C)cc(OCC(F)(F)F)c2)n(C)c(=O)n3C)cnn1C` [Example 215, N-(6-(3-((6-(dimethylamino)hexyl)oxy)-5-(2,2,2-trifluoroethoxy)phenoxy)-1,3-dimethyl-2-oxo-2-3,-dihydro-1H-benzo[d]imidazol-5-yl)-1,5-dimethyl-1H-pyrazole-4-sulfonamide], the IC50 is 1 to 10 nM.
Consider `CCCOc1cc(OCCCN)cc(Oc2cc3c(cc2NS(=O)(=O)c2ccc(OC)c(OC)c2)n(C)c(=O)n3C)c1` [Example 216, N-(6-(3-(3-aminopropoxy)-5-propoxyphenoxy)-1,3-dimethyl-2-oxo-2,3-dihydro-1H-benzo[d]imidazol-5-yl)-3,4-dimethoxybenzenesulfonamide], for which the IC50 lay within 10 to 100 nM.
With `CCCOc1cc(OCCCCN(C)C)cc(Oc2cc3c(cc2NS(=O)(=O)c2cnn(C)c2C)n(C)c(=O)n3C)c1` [Example 217, N-(6-(3-(4-(dimethylamino)butoxy)-5-propoxyphenoxy)-1,3-dimethyl-2-oxo-2,3-dihydro-1H-benzo[d]imidazol-5-yl)-1,5-dimethyl-1H-pyrazole-4-sulfonamide], the IC50 lay within 10 to 100 nM.
Regarding `CCCOc1cc(OCCCCCCN)cc(Oc2cc3c(cc2NS(=O)(=O)C2CC2)n(C)c(=O)n3C)c1` [Example 218, N-(6-(3-((6-aminohexyl)oxy)-5-propoxyphenoxy)-1,3-dimethyl-2-oxo-2,3-dihydro-1H-benzo[d]imidazol-5-yl)cyclopropanesulfonamide], the half-inhibitory concentration (IC50) lay within 10 to 100 nM.
With `CCCOc1cc(OCCCCCCN(C)C)cc(Oc2cc3c(cc2NS(=O)(=O)c2cnn(C)c2C)n(C)c(=O)n3C)c1` [Example 219, N-(6-(3-((6-(dimethylamino)hexyl)oxy)-5-propoxyphenoxy)-1,3-dimethyl-2-oxo-2,3-dihydro-1H-benzo[d]imidazol-5-yl)-1,5-dimethyl-1H-pyrazole-4-sulfonamide] the figure was 1 to 10 nM; with `CCCOc1cc(OCCCCCCN)cc(Oc2cc3c(cc2NS(=O)(=O)c2cccc(C(=O)O)c2)n(C)c(=O)n3C)c1` [Example 220, 3-(N-(6-(3-((6-aminohexyl)oxy)-5-propoxyphenoxy)-1,3-dimethyl-2-oxo-2,3-dihydro-1H-benzo[d]imidazol-5-yl)sulfamoyl)benzoic acid], 100 to 1000 nM.
Turning to `COc1ccc(S(=O)(=O)Nc2cc3c(cc2Oc2cccc(OCC(F)(F)F)c2)n(C)c(=O)n3C)cn1` [Example 221, N-(1,3-dimethyl-2-oxo-6-(3-(2,2,2-trifluoroethoxy)phenoxy)-2,3-dihydro-1H-benzo[d]imidazol-5-yl)-6-methoxypyridine-3-sulfonamide], the half-maximal inhibitory concentration (IC50) lay within 10 to 100 nM.
Then `Cc1cc(OCC(C)C)cc(Oc2cc3c(cc2NS(=O)(=O)c2cn(C)cn2)n(C)c(=O)n3C)c1` [Example 222, N-(6-(3-isobutoxy-5-methylphenoxy)-1,3-dimethyl-2-oxo-2,3-dihydro-1H-benzo[d]imidazol-5-yl)-1-methyl-1H-imidazole-4-sulfonamide], with 10 to 100 nM; and `CC(C)COc1cc(Cl)cc(Oc2cc3c(cc2NS(=O)(=O)c2cn(C)cn2)n(C)c(=O)n3C)c1` [Example 223, N-(6-(3-chloro-5-isobutoxyphenoxy)-1,3-dimethyl-2-oxo-2,3-dihydro-1H-benzo[d]imidazol-5-yl)-1-methyl-1H-imidazole-4-sulfonamide], with 10 to 100 nM.
Consider `CC(C)COc1cc(F)cc(Oc2cc3c(cc2NS(=O)(=O)c2cn(C)cn2)n(C)c(=O)n3C)c1` [Example 224, N-(6-(3-fluoro-5-isobutoxyphenoxy)-1,3-dimethyl-2-oxo-2,3-dihydro-1H-benzo[d]imidazol-5-yl)-1-methyl-1H-imidazole-4-sulfonamide], for which the 50% inhibitory concentration (IC50) was 10 to 100 nM.
For the compound `CCOc1cc(OCC(C)C)cc(Oc2cc3c(cc2NS(=O)(=O)c2cn(C)cn2)n(C)c(=O)n3C)c1` [Example 225, N-(6-(3-ethoxy-5-isobutoxyphenoxy)-1,3-dimethyl-2-oxo-2,3-dihydro-1H-benzo[d]imidazol-5-yl)-1-methyl-1H-imidazole-4-sulfonamide], the IC50 was 10 to 100 nM.
For `CCc1cc(OCC(C)C)cc(Oc2cc3c(cc2NS(=O)(=O)c2cn(C)cn2)n(C)c(=O)n3C)c1` [Example 226, N-(6-(3-ethyl-5-isobutoxyphenoxy)-1,3-dimethyl-2-oxo-2,3-dihydro-1H-benzo[d]imidazol-5-yl)-1-methyl-1H-imidazole-4-sulfonamide], the concentration for half-maximal inhibition (IC50) lay within 10 to 100 nM.
Consider `Cn1cnc(S(=O)(=O)Nc2cc3c(cc2Oc2cccc(OCCCC(=O)O)c2)n(C)c(=O)n3C)c1` [Example 227, 4-(3-(1,3-dimethyl-6-(1-methyl-1H-imidazole-4-sulfonamido)-2-oxo-2,3-dihydro-1H-benzo[d]imidazol-5-yloxy)phenoxy)butanoic acid], for which the IC50 was > 1000 nM.
In the case of `Cn1cnc(S(=O)(=O)Nc2cc3c(cc2Oc2cccc(OCCCCC(=O)O)c2)n(C)c(=O)n3C)c1` [Example 228], the IC50 fell in the range of 100 to 1000 nM.
On to `Cc1nc(S(=O)(=O)Nc2cc3c(cc2Oc2cccc(OCC4CCNCC4)c2)n(C)c(=O)n3C)cn1C` [Example 229, N-(1,3-dimethyl-2-oxo-6-(3-(piperidin-4-ylmethoxy)phenoxy)-2,3-dihydro-1H-benzo[d]imidazol-5-yl)-1,2-dimethyl-1H-imidazole-4-sulfonamide], for which the IC50 lay within 100 to 1000 nM.
Then `CC(CO)COc1cccc(Oc2cc3c(cc2NS(=O)(=O)c2cn(C)cn2)n(C)c(=O)n3C)c1` (stereo not drawn) [Example 230, N-(6-(3-(3-hydroxy-2-methylpropoxy)phenoxy)-1,3-dimethyl-2-oxo-2,3-dihydro-1H-benzo[d]imidazol-5-yl)-1-methyl-1H-imidazole-4-sulfonamide], with 100 to 1000 nM; and `Cn1cnc(S(=O)(=O)Nc2cc3c(cc2Oc2cccc(OCC(C)(O)CO)c2)n(C)c(=O)n3C)c1` (stereo not drawn) [Example 231, N-{6-[3-(2,3-dihydroxy-2-methylpropoxy)phenoxy]-1,3-dimethyl-2-oxo-2,3-dihydro-1H-1,3-benzodiazol-5-yl}-1-methyl-1H-imidazole-4-sulfonamide], with 100 to 1000 nM.
As for `COC(C)(CO)COc1cccc(Oc2cc3c(cc2NS(=O)(=O)c2cn(C)cn2)n(C)c(=O)n3C)c1` (stereo not drawn) [Example 232, N-{6-[3-(3-hydroxy-2-methoxy-2-methylpropoxy)phenoxy]-1,3-dimethyl-2-oxo-2,3-dihydro-1H-1,3-benzodiazol-5-yl}-1-methyl-1H-imidazole-4-sulfonamide], the IC50 fell in the range of 100 to 1000 nM.
`COCC(C)(O)COc1cccc(Oc2cc3c(cc2NS(=O)(=O)c2cn(C)cn2)n(C)c(=O)n3C)c1` (stereo not drawn) [Example 233, N-{6-[3-(2-hydroxy-3-methoxy-2-methylpropoxy)phenoxy]-1,3-dimethyl-2-oxo-2,3-dihydro-1H-1,3-benzodiazol-5-yl}-1-methyl-1H-imidazole-4-sulfonamide]: the half-inhibitory concentration (IC50) lay in the range of 100 to 1000 nM.
Consider `Cn1cnc(S(=O)(=O)Nc2cc3c(cc2Oc2cccc(OCC(C)(O)CN)c2)n(C)c(=O)n3C)c1` (stereo not drawn) [Example 234, N-{6-[3-(3-amino-2-hydroxy-2-methylpropoxy)phenoxy]-1,3-dimethyl-2-oxo-2,3-dihydro-1H-1,3-benzodiazol-5-yl}-1-methyl-1H-imidazole-4-sulfonamide], for which the IC50 is > 1000 nM.
Then `CNCC(C)(O)COc1cccc(Oc2cc3c(cc2NS(=O)(=O)c2cn(C)cn2)n(C)c(=O)n3C)c1` (stereo not drawn) [Example 235, N-(6-{3-[2-hydroxy-2-methyl-3-(methylamino)propoxy]phenoxy}-1,3-dimethyl-2-oxo-2,3-dihydro-1H-1,3-benzodiazol-5-yl)-1-methyl-1H-imidazole-4-sulfonamide], with > 1000 nM; and `Cn1cnc(S(=O)(=O)Nc2cc3c(cc2Oc2cccc(OCC4(C)CO4)c2)n(C)c(=O)n3C)c1` (stereo not drawn) [Example 236, N-(1,3-dimethyl-6-(3-((2-methyloxiran-2-yl)methoxy)phenoxy)-2-oxo-2,3-dihydro-1H-benzo[d]imidazol-5-yl)-1-methyl-1H-imidazole-4-sulfonamide], with 100 to 1000 nM; and `Cn1cnc(S(=O)(=O)Nc2cc3c(cc2Oc2cccc(OCC(C)(O)CNCCN)c2)n(C)c(=O)n3C)c1` (stereo not drawn) [Example 237, N-[6-(3-{3-[(2-aminoethyl)amino]-2-hydroxy-2-methylpropoxy}phenoxy)-1,3-dimethyl-2-oxo-2,3-dihydro-1H-1,3-benzodiazol-5-yl]-1-methyl-1H-imidazole-4-sulfonamide], with 100 to 1000 nM.
As for `Cn1cnc(S(=O)(=O)Nc2cc3c(cc2Oc2cccc(OCC(C)(C)O)c2)n(C)c(=O)n3C)c1` [Example 238, N-{6-[3-(2-hydroxy-2-methylpropoxy)phenoxy]-1,3-dimethyl-2-oxo-2,3-dihydro-1H-1,3-benzodiazol-5-yl}-1-methyl-1H-imidazole-4-sulfonamide], the IC50 lay in the range of 100 to 1000 nM.
